pEC50, pIC50: −log10 of the molar value.
Legend:
[1] = system: Human immunodeficiency virus 1; assay: (§1) Antiviral activity against wild type VSV-G pseudotyped HIV-1 NL4-3 infected in human HEK293T cells assessed as inhibition of viral replication by measuring luciferase activity incubated for 48 hrs further infected with human SupT1 cells for 48 hrs by luciferase based analysis; type: functional, organism-based; conditions: Human immunodeficiency virus 1, NL4-3, HEK-293T
[2] = system: Human immunodeficiency virus 1; assay: as §1, with “drug-resistant” for “wild type”, “NL4-3 harboring protease V32I/L33F/I54M/I84V mutant” for “NL4-3”; type: functional, organism-based; conditions: Human immunodeficiency virus 1, NL4-3, HEK-293T
[3] = Cytotoxicity against human HEK293T cells assessed as reduction in cell viability incubated for 24 hrs by CCK-8 assay; type: toxicity, cell-based, HEK-293T
[4] = molecular target: Human immunodeficiency virus type 1 protease (Human immunodeficiency virus 1, UniProt Q72874); assay: Inhibition of HIV-1 protease expressed in Escherichia coli using Arg-Glu(EDANS)-Ser-Gln-Asn-Tyr-Pro-Ile-Val-Gln-Lys(DABCYL)-Arg peptide as substrate preincubated for 20 to 30 mins followed by substrate addition and measured for 10 mins by FRET assay

`CC(C)CN(C[C@@H](O)[C@H](Cc1ccccc1)NC(=O)O[C@H]1CCOC1)S(=O)(=O)c1ccc(N)cc1` gave a pEC50 [1] of 6.59, a pEC50 [2] of 5.41 and a CC50 at 24 h [3] greater than 200 µM.

Work on `CC(C)CN(C[C@@H](O)[C@H](Cc1ccccc1)NC(=O)O[C@H]1CCNC1)S(=O)(=O)c1ccc(N)cc1` yielded a pIC50 [4] of 5.30.

In the case of `CC(C)CN(C[C@@H](O)[C@H](Cc1ccccc1)NC(=O)N[C@H]1CCNC1)S(=O)(=O)c1ccc(O)cc1`, the pIC50 [4] was 5.71.

With `COc1ccc(S(=O)(=O)N(CC(C)C)C[C@@H](O)[C@H](Cc2ccccc2)NC(=O)[C@H]2CCCN2)cc1` the pIC50 [4] was 4.40.

`COc1ccc(S(=O)(=O)N(CC(C)C)C[C@@H](O)[C@H](Cc2ccccc2)NC(=O)[C@@H]2CCNC2)cn1` showed a pIC50 [4] of 6.08.

`CC(C)CN(C[C@@H](O)[C@H](Cc1ccccc1)NC(=O)[C@@H]1CCNC1)S(=O)(=O)c1ccc(O)cc1` gave a pIC50 [4] of 6.49, a pEC50 [1] of 6.54 and a pEC50 [2] of 5.72. For the same molecule, the CC50 at 24 h [3] was greater than 200 µM.

For `COc1ccc(S(=O)(=O)N(CC(C)C)C[C@@H](O)[C@H](Cc2ccccc2)NC(=O)[C@@H]2CCNC2)cc1`, the pIC50 [4] was 6.39, the pEC50 [1] was 5.87 and the pEC50 [2] was 5.60. For the same molecule, the CC50 at 24 h [3] was greater than 200 µM.

For `COc1ccc(S(=O)(=O)N(CC(C)C)C[C@@H](O)[C@H](Cc2ccccc2)NC(=O)O[C@H]2CCNC2)cn1`, the pIC50 [4] was 5.39.

Molecule `COc1ccc(S(=O)(=O)N(CC(C)C)C[C@@H](O)[C@H](Cc2ccccc2)NC(=O)C[C@H]2CCNC2)cc1` has a pIC50 [4] of 5.56.

Work on `COc1ccc(S(=O)(=O)N(CC(C)C)C[C@@H](O)[C@H](Cc2ccccc2)NC(=O)O[C@H]2CCNC2)cc1` yielded a pIC50 [4] of 5.96.

With `CC(C)CN(C[C@@H](O)[C@H](Cc1ccccc1)NC(=O)O[C@H]1CCNC1)S(=O)(=O)c1ccc(O)cc1` the pIC50 [4] was 6.14, the pEC50 [1] was 6.39 and the pEC50 [2] was 5.09. For the same molecule, the CC50 at 24 h [3] was greater than 200 µM.

With `CC(C)CN(C[C@@H](O)[C@H](Cc1ccccc1)NC(=O)C[C@@H]1CCNC1)S(=O)(=O)c1ccc(O)cc1` the pIC50 [4] was 5.30.

`CC(C)CN(C[C@@H](O)[C@H](Cc1ccccc1)NC(=O)O[C@H]1CCNC1)S(=O)(=O)c1ccc(NO)cc1` showed a pIC50 [4] of 5.29.

`CC(C)CN(C[C@@H](O)[C@H](Cc1ccccc1)NC(=O)[C@H]1CCNC1)S(=O)(=O)c1ccc(N)cc1` gave a pIC50 [4] of 4.90.

Molecule `CC(C)CN(C[C@@H](O)[C@H](Cc1ccccc1)NC(=O)[C@H]1CCCN1)S(=O)(=O)c1ccc(O)cc1` has a pIC50 [4] of 4.01.

For `COc1ccc(S(=O)(=O)N(CC(C)C)C[C@@H](O)[C@H](Cc2ccccc2)NC(=O)C[C@@H]2CCNC2)cc1`, the pIC50 [4] was 4.69.

With `CC(C)CN(C[C@@H](O)[C@H](Cc1ccccc1)NC(=O)[C@H]1CCNC1)S(=O)(=O)c1ccc(NO)cc1` the pIC50 [4] was 4.96.

`COc1ccc(S(=O)(=O)N(CC(C)C)C[C@@H](O)[C@H](Cc2ccccc2)NC(=O)[C@H]2CCNC2)cc1` gave a pIC50 [4] of 6.22.

`COc1ccc(S(=O)(=O)N(CC(C)C)C[C@@H](O)[C@H](Cc2ccccc2)NC(=O)O[C@@H]2CCNC2)cc1` showed a pIC50 [4] of 5.59.

`CC(C)CN(C[C@@H](O)[C@H](Cc1ccccc1)NC(=O)C[C@H]1CCNC1)S(=O)(=O)c1ccc(O)cc1` showed a pIC50 [4] of 5.84.

`COc1ccc(S(=O)(=O)N(CC(C)C)C[C@@H](O)[C@H](Cc2ccccc2)NC(=O)[C@H]2CCNC2)cn1` gave a pIC50 [4] of 5.32.

Molecule `COc1ccc(S(=O)(=O)N(CC(C)C)C[C@@H](O)[C@H](Cc2ccccc2)NC(=O)[C@@H]2CCCN2)cc1` has a pIC50 [4] of 5.66.

`CC(C)CN(C[C@@H](O)[C@H](Cc1ccccc1)NC(=O)[C@@H]1CCNC1)S(=O)(=O)c1ccc(N)cc1` gave a pIC50 [4] of 5.21.

`CC(C)CN(C[C@@H](O)[C@H](Cc1ccccc1)NC(=O)N[C@@H]1CCNC1)S(=O)(=O)c1ccc(O)cc1` gave a pIC50 [4] of 5.22.

With `COc1ccc(S(=O)(=O)N(CC(C)C)C[C@@H](O)[C@H](Cc2ccccc2)NC(=O)O[C@@H]2CCNC2)cn1` the pIC50 [4] was 4.64.

For `CC(C)CN(C[C@@H](O)[C@H](Cc1ccccc1)NC(=O)[C@@H]1CCCN1)S(=O)(=O)c1ccc(O)cc1`, the pIC50 [4] was 6.01.

Molecule `CC(C)CN(C[C@@H](O)[C@H](Cc1ccccc1)NC(=O)O[C@@H]1CCNC1)S(=O)(=O)c1ccc(N)cc1` has a pIC50 [4] of 4.60.

Work on `COc1ccc(S(=O)(=O)N(CC(C)C)C[C@@H](O)[C@H](Cc2ccccc2)NC(=O)N[C@H]2CCNC2)cc1` yielded a pIC50 [4] of 5.40.

For `CC(C)CN(C[C@@H](O)[C@H](Cc1ccccc1)NC(=O)O[C@@H]1CCNC1)S(=O)(=O)c1ccc(O)cc1`, the pIC50 [4] was 6.09, the pEC50 [1] was 6.12 and the pEC50 [2] was 5.03. For the same molecule, the CC50 at 24 h [3] was greater than 200 µM.

With `CC(C)CN(C[C@@H](O)[C@H](Cc1ccccc1)NC(=O)O[C@@H]1CCNC1)S(=O)(=O)c1ccc(NO)cc1` the pIC50 [4] was 4.56.

In the case of `COc1ccc(S(=O)(=O)N(CC(C)C)C[C@@H](O)[C@H](Cc2ccccc2)NC(=O)N[C@@H]2CCNC2)cc1`, the pIC50 [4] was 4.68.

With `CC(C)CN(C[C@@H](O)[C@H](Cc1ccccc1)NC(=O)[C@@H]1CCNC1)S(=O)(=O)c1ccc(NO)cc1` the pIC50 [4] was 5.92.

Molecule `CC(C)CN(C[C@@H](O)[C@H](Cc1ccccc1)NC(=O)[C@H]1CCNC1)S(=O)(=O)c1ccc(O)cc1` has a pIC50 [4] of 6.29, a pEC50 [1] of 5.80 and a pEC50 [2] of 4.88. For the same molecule, the CC50 at 24 h [3] was greater than 200 µM.

Source: ChEMBL document CHEMBL5321230, “Design, synthesis, and biological evaluation of novel HIV-1 protease inhibitors containing pyrrolidine-derived P2 ligands to combat drug-resistant variant” (Eur J Med Chem, 2023)
